Laboratory results from patent publication US8476023B2, “Methods relating to aromatase inhibitor pharmacogenetics” (The Penn State Research Foundation, priority 2009, dated 2013).

Experiments:
[1] = molecular target: T1, UGT1A8 (Homo sapiens, UniProt Q9HAW9); assay: Glucuronidation assay, UGT1A8-overexpressing HEK293 cell homogenate; assay type: in vitro ADME; conditions: up to 600 μM substrate
T1 construct: expressed in transfected cells; host or cells: HEK293
T1 sequence (Q9HAW9 26-530): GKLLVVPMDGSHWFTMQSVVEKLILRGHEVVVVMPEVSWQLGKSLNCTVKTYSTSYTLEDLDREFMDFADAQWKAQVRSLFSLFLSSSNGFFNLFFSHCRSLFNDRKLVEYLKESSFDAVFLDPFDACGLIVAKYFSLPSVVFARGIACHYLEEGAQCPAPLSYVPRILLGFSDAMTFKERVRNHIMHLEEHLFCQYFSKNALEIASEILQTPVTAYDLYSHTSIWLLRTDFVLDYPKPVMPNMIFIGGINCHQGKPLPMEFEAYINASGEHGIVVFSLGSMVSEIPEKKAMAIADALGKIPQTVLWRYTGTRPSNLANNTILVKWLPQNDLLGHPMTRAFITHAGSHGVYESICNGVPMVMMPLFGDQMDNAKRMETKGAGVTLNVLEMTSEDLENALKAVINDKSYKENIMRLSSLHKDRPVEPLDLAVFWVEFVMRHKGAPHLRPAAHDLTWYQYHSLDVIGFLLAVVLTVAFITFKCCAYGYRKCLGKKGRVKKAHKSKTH

[2] = Kinetic analysis of glucuronidation by individual HLM from UGT2B17 (*2/*2) subjects; assay type: in vitro ADME, human; conditions: human, liver microsomes of UGT2B17 (*2/*2) subjects
[3] = test system: human liver microsomes (HLM), UGT2B17 (*2/*2) genotype; assay: as above; assay type: in vitro ADME; conditions: per mg HLM protein
[4] = Kinetic analysis of glucuronidation by individual HLM from UGT2B17 (*1/*1) subjects; assay type: in vitro ADME, human; conditions: human, liver microsomes of UGT2B17 (*1/*1) subjects
[5] = test system: human liver microsomes (HLM), UGT2B17 (*1/*1) genotype; assay: as above; assay type: in vitro ADME; conditions: per mg HLM protein
[6] = test system: UGT1A4 24Thr/48Leu; assay: Glucuronidation assay, UGT1A4 24Thr/48Leu-overexpressing HEK293 cell homogenate; assay type: in vitro ADME, human; conditions: human, pH 7.4
[7] = test system: UGT1A4^24Thr/48Leu; assay: as above; assay type: in vitro ADME, human; conditions: normalized per μg UGT protein by Western blot
[8] = molecular target: T2, UGT2B17 (Homo sapiens, UniProt O75795); assay: Glucuronidation assay, UGT2B17-overexpressing HEK293 cell homogenate; assay type: in vitro ADME; conditions: UGT2B17; up to 600 μM substrate
T2 construct: expressed in transfected cells; host or cells: HEK293
T2 sequence (O75795 24-530): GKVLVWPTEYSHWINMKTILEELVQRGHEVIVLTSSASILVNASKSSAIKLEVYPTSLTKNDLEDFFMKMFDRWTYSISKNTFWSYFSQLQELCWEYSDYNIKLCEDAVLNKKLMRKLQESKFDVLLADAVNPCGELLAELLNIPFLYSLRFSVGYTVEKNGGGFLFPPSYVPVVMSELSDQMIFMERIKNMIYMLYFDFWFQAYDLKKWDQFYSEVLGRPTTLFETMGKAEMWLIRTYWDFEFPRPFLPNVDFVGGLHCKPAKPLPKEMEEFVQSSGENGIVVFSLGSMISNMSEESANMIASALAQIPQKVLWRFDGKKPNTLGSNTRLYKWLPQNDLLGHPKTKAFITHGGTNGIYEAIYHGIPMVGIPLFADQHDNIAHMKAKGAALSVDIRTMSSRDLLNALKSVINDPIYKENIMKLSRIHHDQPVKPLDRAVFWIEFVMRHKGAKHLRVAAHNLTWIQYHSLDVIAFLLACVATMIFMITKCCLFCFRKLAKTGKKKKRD

[9] = test system: UGTs 1A1, 1A3, 1A6, 1A7, 1A9, 2B4, 2B7, 2B10, 2B11, 2B15; assay: Screening of the other UGT-overexpressing HEK293 cell homogenates for glucuronidation activity; assay type: in vitro ADME, human; conditions: other UGTs screened; up to 1 mg of UGT overexpressing cell homogenate
[10] = molecular target: T3, UGT1A10 (Homo sapiens, UniProt Q9HAW8); assay: Glucuronidation assay, UGT1A10-overexpressing HEK293 cell homogenate; assay type: in vitro ADME; conditions: UGT1A10; up to 600 μM substrate
T3 construct: expressed in transfected cells; host or cells: HEK293
T3 sequence (Q9HAW8 26-530): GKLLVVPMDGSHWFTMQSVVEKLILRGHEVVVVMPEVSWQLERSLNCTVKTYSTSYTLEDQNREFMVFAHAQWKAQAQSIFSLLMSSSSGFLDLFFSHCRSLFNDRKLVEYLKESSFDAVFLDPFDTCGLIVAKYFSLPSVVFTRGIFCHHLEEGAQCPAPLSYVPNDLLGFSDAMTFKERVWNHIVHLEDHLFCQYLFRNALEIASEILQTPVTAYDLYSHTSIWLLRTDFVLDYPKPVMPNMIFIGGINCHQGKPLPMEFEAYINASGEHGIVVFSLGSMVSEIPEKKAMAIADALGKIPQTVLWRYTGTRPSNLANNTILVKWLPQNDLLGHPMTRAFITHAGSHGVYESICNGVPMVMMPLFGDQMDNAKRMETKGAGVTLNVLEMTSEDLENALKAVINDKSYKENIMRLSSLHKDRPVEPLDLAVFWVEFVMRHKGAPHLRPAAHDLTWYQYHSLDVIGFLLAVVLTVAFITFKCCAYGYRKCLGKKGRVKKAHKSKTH

[11] = molecular target: T4, UGT1A4^24Pro/48Leu (Homo sapiens, UniProt P22310); assay: Glucuronidation assay, UGT1A4 24Pro/48Leu-overexpressing HEK293 cell homogenate; assay type: in vitro ADME; conditions: UGT 1A4 as worded in text; up to 600 μM substrate
T4 construct: expressed in transfected cells; host or cells: HEK293
T4 sequence (P22310 29-534): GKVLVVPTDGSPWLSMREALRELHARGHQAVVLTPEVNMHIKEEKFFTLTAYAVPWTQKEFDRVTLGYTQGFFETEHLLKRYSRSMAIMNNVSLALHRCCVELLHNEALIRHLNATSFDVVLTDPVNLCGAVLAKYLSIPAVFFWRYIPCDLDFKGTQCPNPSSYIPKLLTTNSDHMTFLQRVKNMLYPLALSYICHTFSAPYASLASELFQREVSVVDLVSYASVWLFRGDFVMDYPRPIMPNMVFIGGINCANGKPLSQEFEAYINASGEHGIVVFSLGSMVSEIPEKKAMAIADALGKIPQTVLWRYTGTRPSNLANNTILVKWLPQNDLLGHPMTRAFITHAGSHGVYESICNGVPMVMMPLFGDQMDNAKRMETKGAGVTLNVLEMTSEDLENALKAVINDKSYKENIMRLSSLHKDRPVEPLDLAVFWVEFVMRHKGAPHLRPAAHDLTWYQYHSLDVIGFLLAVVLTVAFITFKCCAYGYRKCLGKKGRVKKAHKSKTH

[12] = test system: human liver microsomes (HLM); assay: Rate of exemestane-17-O-glucuronide formation in a series of 110 HLM by UGT2B17 genotype; assay type: in vitro ADME; conditions: 9.4 μM 17-dihydroexemestane, p<0.001

C=C1C[C@@H]2[C@H](CC[C@]3(C)C(O)CC[C@@H]23)[C@@]2(C)C=CC(=O)C=C12 (stereo partly shown) [17-dihydroexemestane]
glucuronidation activity in UGT screen [1]: detectable activity | Km at 60 min ([2]; pH 7.4, HLM # 383, UGT2B17 (*2/*2), read-out: KM): 9.3 µM | Km at 60 min ([2]; pH 7.4, HLM # 416, UGT2B17 (*2/*2), read-out: KM): 17 µM | Km at 60 min ([2]; pH 7.4, HLM # 2174, UGT2B17 (*2/*2), read-out: KM): 12.4 µM | Km at 60 min ([2]; pH 7.4, HLM # 2175, UGT2B17 (*2/*2), read-out: KM): 13 µM | Km at 60 min ([2]; pH 7.4, HLM # 3873, UGT2B17 (*2/*2), read-out: KM): 11 µM | Km at 60 min ([2]; pH 7.4, mean of five UGT2B17 (*2/*2) HLM, read-out: KM, mean ± S.D.): 12.8 ± 3 µM | Vmax ([3]; HLM # 383, UGT2B17 (*2/*2)): 17.0 pmol/min/mg | Vmax ([3]; HLM # 416, UGT2B17 (*2/*2)): 5.6 pmol/min/mg | Vmax ([3]; HLM # 2174, UGT2B17 (*2/*2)): 13.0 pmol/min/mg | Vmax ([3]; HLM # 2175, UGT2B17 (*2/*2)): 2.3 pmol/min/mg | Vmax ([3]; HLM # 3873, UGT2B17 (*2/*2)): 8.1 pmol/min/mg | Vmax, mean ± S.D. ([3]; mean of five UGT2B17 (*2/*2) HLM): 9.2 ± 5.9 pmol/min/mg | Km at 60 min ([4]; pH 7.4, HLM # 972, UGT2B17 (*1/*1), read-out: KM): 10.6 µM | Km at 60 min ([4]; pH 7.4, HLM # 1183, UGT2B17 (*1/*1), read-out: KM): 7.2 µM | Km at 60 min ([4]; pH 7.4, HLM # 1392, UGT2B17 (*1/*1), read-out: KM): 7.1 µM | Km at 60 min ([4]; pH 7.4, HLM # 2412, UGT2B17 (*1/*1), read-out: KM): 6.7 µM | Km at 60 min ([4]; pH 7.4, mean of five UGT2B17 (*1/*1) HLM, read-out: KM, mean ± S.D.): 7.3 ± 2 µM | Vmax ([5]; HLM # 972, UGT2B17 (*1/*1)): 51.6 pmol/min/mg | Vmax ([5]; HLM # 1183, UGT2B17 (*1/*1)): 322 pmol/min/mg | Vmax ([5]; HLM # 1392, UGT2B17 (*1/*1)): 393 pmol/min/mg | Vmax ([5]; HLM # 2167, UGT2B17 (*1/*1)): 38.9 pmol/min/mg | Vmax ([5]; HLM # 2412, UGT2B17 (*1/*1)): 213 pmol/min/mg | Vmax, mean ± S.D. ([5]; mean of five UGT2B17 (*1/*1) HLM): 204 ± 158 pmol/min/mg | Km at 60 min [6]: 28 ± 7.8 µM | Vmax [7]: 0.26 ± 0.04 pmol · min^−1 · μg UGT protein^−1 | glucuronidation activity in UGT screen [8]: detectable activity | glucuronidation activity in UGT screen [9]: None of the other UGTs screened in assays described herein exhibited any glucuronidation activity | glucuronidation activity in UGT screen [10]: detectable activity | glucuronidation activity in UGT screen [11]: detectable activity | decrease in glucuronidation activity in HLM (*2/*2) compared with HLM (*1/*1) [12]: 14 fold
